Laboratory results: patent US9266817B2, “Catecholamine derivatives for obesity and neurological disorders” (EMORY UNIVERSITY, priority 2009, dated 2016)
Entries after “also recorded” stand apart in the source; their conditions may differ.

Tests used:
TrkB F616A [1] = biological target: T1, TrkB F616A (Mus musculus, UniProt P15209); experiment: TrkB phosphorylation in TrkB F616A or TrkA F592A cortical neurons pretreated with K252a or 1NMPP1; assay type: cell-based, mice
T1 construct: endogenous in cells; host or cells: primary cortical neurons from TrkB F616A knock-in mice
Description: (§1) TrkB F616A mice were pretreated with 1NMPP1 (50 μM) before L-DOPA or DOPS administration.
(§2) On day 7, the primary cortical neurons were pretreated with 100 nM K252a or 1NMPP1 for 30 min, followed by 500 nM ADPP and DDAP. Cell lysates were analyzed by Western blotting.

TrkB [2] = biological target: T2, TrkB (Rattus norvegicus, UniProt Q63604); experiment: Immunoblotting of TrkB phosphorylation in primary cortical neurons treated with catecholamines; assay type: cell-based; conditions: cortical neurons
T2 construct: endogenous in cells; host or cells: primary rat cortical and hippocampal neurons
Description: Primary cultured rat cortical neurons were prepared as follows. E17 rat pups were decapitated and cortex was extirpated, cross chopped and suspended by pipetting for separation in 5% fetal calf serum (FCS), 5% horse serum (HS) DMEM. The cell suspension was then centrifuged at 250×g for 5 min. This operation was repeated. Cells were seeded into polyethyleneimine-coated 10 cm^2 dishes and 12-well plates including coated-coverslips and incubated at 37° C. in 5% CO2/95% air. After 3 hours, the culture medium was changed to Neurobasal containing B-27 supplement (Invitrogen; Carlsbad, Calif.) and incubated for 4 days. For maintenance, half of the culture medium was changed to fresh Neurobasal/B27 in every 4 days. After 1 week, the dished cultured neurons were ready for use.
To explore whether monoamine neurotransmitters, including catecholamines (see, e.g., FIG. 1), could stimulate TrkB activation, hippocampal neurons were treated with 300 nM of catecholamines, serotonin, and melatonin for 30 min.

TrkB F616A knockin mice = experiment: Kainic acid-induced neuronal apoptosis in TrkB F616A knockin mice (immunoblotting and Caspase-3 ELISA); assay type: in vivo; conditions: 50 mg/kg orally 2 hours before KA 20 mg/kg
Description: To determine whether Compound I-11 (ADPP) and Compound I-8 (DDAP) protect neurons from KA-induced apoptosis, TrkB F616A knockin mice were pretreated with inhibitor 1NMPP1 (16.6 ng/kg) 2 days before the experiment. Compound I-8 (DDAP) or Compound I-11 (ADPP) (50 mg/kg) was orally injected into the mice 2 hours before kainic acid (KA) administration (20 mg/kg). Brain lysates were analyzed by immunoblotting and Caspase-3 ELISA. […] The extent of the protective effect correlates with TrkB activation status by these compounds. Active Caspase-3 ELISA correlated with the immunoblotting results (FIG. 28B, right panel).

mice = experiment: Forced swim test; assay type: in vivo
Description: Accumulating evidence supports that BDNF plays an essential role in mediating antidepressants' therapeutic effects. Infusion of exogenous BDNF into hippocampus or brain stem has antidepressant-like behavioral effect. A forced swim test is broadly used for screening of potential antidepressant drugs and is widely used to measure antidepressant activity. To explore whether Compound I-11 (ADPP) and Compound I-8 (DDAP) have antidepressant effects like BDNF, forced swim tests were conducted. Adult male mice (2-3 months old, n=8) were randomly submitted, without a pre-swim, to a forced swim test of 6 minutes with immobility recorded in the last 4 minutes. Mice were injected intraperitoneally with saline, Compound I-11 (20 mg/kg), or Compound I-8 (20 mg/kg). The mice were allowed to adapt to the test room for 2 days, and the mice were placed in a clear glass cylinder with a diameter of 16 cm, half-filled with clear water at 24° C.
To assess whether the behavior responses caused by catecholamine derivatives is mediated by TrkB receptor, TrkB F616A knockin mice were utilized. The mice were subjected to saline or 1NMPP1 inhibitor pretreatment.

TrkB F616A [3] = biological target: T3, TrkB F616A (Mus musculus, UniProt P15209, F616A); experiment: TrkB phosphorylation in TrkB F616A or TrkA F592A cortical neurons pretreated with K252a or 1NMPP1; assay type: cell-based, mice; conditions: primary TrkB F616A cortical neurons, 100 nM inhibitor 30 min, 500 nM compound
T3 construct: endogenous in cells; host or cells: primary cortical neurons from TrkB F616A knock-in mice
Description: as §1, §2

TrkB [4] = experiment: TrkB activation in mouse brain after administration of catecholamine derivatives (anti-p-TrkB-Y-816 immunoblot); assay type: in vivo
Description: To explore whether these compounds could stimulate TrkB in vivo, 50 mg/kg of Compound I-11, Compound I-8, and Compound I-2 (2-(methylamino)-3′,4′-dihydroxy-acetophenone) were each orally administered (in saline) to 2-month-old C57BL/6J mice. The mice were sacrificed at different time points and TrkB activation in the brains of the mice was monitored by immunoblotting with anti-p-TrkB-Y-816 antibody.
To determine the minimal required dosages for Compound I-11 and Compound I-8, different doses of the compounds were each orally administered to mice. The mice were sacrificed after 4 hours, and the brain lysates were analyzed by immunoblotting with anti-p-TrkB-Y-816 antibody.
To search for orally bioactive catecholamines, catecholamine derivatives described herein were screened using primary neuronal cultures. The in vitro active compounds, Compounds I-8 and I-11, were adminstered into two to three month old C57BL/6J mice orally, intraperitoneally, and in drinking water. For oral administration, the mice were administered 0 mg (control), 5 mg, 10 mg, 20 mg, or 50 mg of Compound I-8 or Compound I-11. After 4 hours, TrkB phosphorylation in mouse brain was monitored by analyzing the brain lysates using immunoblotting with anti-p-TrkB-Y-816 antibody. The ratios of p-TrK/total TrkB were quantified (FIG. 27A). For intraperitoneal administration, 50 mg/kg of Compound I-8 or Compound I-11 were intraperitoneally injected into the mice. The brain lysates were prepared at different times (0 hr, 1 hr, 2 hr, 4 hr, and 8 hr) and were analyzed by immunoblotting with anti-p-TrkB-Y-816 antibody (FIG. 27B). Compound I-8 and Compound I-11 were dissolved in drinking water and given to mice. After 24 h, the brain lysates were prepared and analyzed by immunoblotting with anti-p-TrkB-Y-816 antibody (FIG. 27C). […] Therefore, these compounds are useful in treating various neurological or neuropsychiatric diseases as described herein.

TrkB [5] = biological target: T2, TrkB; experiment: Screening of catecholamine derivatives for TrkB activation in primary cortical neurons (anti-p-TrkB-Y-816 immunoblot); assay type: cell-based; conditions: 500 nM, 30 min
Description: Catecholamines can directly bind to the kinase domain of the TrkB receptor and activate it. However, the catecholamines are not able to cross through the blood brain barrier. […] Cortical neurons (7 DIV cortical neurons from 18 day old Sprague Dawley rat embryos) were treated with 500 nM of the selected compound for 30 min and cell lysates were prepared. The cell lysates ([…]) were analyzed for TrkB activation by immunoblotting with anti-p-TrkB-Y-816 antibody.
Catecholamine derivatives as described herein, including Compound I-2, Compound I-5, Compound I-7, Compound I-8, Compound I-9, Compound I-10, Compound I-11, Compound I-14, Compound I-15, Compound I-17, Compound I-18, and isoproterenol, were screened for TrkB activation in primary cortical neurons. Cortical neurons (7 DIV cortical neurons from 18 day old Sprague Dawley rat embryos) were treated with 500 nM of the selected compound for 30 min and cell lysates were prepared. The cell lysates ([…]) were analyzed for TrkB activation by immunoblotting with anti-p-TrkB-Y-816 antibody.

T2 sequence (Q63604 32-821): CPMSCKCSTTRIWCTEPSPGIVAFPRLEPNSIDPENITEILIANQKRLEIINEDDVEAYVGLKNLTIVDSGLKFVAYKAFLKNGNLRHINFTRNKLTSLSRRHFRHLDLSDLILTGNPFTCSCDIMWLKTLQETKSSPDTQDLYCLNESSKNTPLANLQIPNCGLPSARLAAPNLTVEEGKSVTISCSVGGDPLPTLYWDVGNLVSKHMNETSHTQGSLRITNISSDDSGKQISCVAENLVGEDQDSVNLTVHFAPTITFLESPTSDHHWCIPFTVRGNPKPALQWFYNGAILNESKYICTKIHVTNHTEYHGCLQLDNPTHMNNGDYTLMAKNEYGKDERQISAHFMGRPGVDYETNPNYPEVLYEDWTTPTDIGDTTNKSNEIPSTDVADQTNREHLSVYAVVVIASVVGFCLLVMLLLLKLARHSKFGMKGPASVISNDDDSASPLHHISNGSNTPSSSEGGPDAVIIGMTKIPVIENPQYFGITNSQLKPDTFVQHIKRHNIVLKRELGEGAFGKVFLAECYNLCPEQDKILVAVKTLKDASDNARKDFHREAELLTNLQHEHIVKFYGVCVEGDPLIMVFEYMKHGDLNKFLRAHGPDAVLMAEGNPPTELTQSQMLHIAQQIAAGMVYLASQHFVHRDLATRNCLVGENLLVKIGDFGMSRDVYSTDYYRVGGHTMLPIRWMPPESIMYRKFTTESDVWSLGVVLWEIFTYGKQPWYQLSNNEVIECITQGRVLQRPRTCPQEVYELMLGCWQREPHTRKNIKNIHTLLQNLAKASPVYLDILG
T3 sequence (P15209 32-821 F616A): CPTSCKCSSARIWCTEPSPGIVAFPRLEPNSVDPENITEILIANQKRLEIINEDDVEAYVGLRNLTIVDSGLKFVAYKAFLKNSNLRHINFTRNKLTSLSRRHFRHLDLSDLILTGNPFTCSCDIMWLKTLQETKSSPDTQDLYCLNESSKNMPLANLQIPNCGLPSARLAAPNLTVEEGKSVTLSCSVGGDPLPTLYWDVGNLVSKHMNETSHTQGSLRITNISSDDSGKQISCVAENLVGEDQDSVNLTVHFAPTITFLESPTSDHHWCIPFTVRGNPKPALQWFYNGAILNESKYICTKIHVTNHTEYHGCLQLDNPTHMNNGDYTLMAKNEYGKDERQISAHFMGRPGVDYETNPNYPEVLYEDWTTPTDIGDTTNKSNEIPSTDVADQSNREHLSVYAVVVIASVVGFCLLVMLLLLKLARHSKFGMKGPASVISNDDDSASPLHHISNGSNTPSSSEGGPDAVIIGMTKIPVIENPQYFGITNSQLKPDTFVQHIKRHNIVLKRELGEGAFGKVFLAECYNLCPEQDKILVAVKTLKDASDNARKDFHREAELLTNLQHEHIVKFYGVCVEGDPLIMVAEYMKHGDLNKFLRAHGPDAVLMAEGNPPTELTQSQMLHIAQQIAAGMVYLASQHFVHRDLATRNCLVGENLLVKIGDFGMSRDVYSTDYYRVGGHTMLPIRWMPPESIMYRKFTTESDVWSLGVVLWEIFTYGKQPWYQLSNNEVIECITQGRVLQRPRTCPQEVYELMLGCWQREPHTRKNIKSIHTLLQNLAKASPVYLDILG
T1 sequence (P15209 32-821 F616A): as above

| Structure (SMILES) | Effect of inhibitor on catecholamine-induced TrkB activation (TrkB F616A [1]) | Effect of K252a pretreatment on catecholamine-triggered TrkB tyrosine phosphorylation (TrkB [2]) | Kainic acid (KA)-provoked neuronal cell death in mouse brain (TrkB F616A knockin mice) | Swimming immobility (mice; 20 mg/kg intraperitoneally, adult male mice) | Immobility time after 1NMPP1 treatment (mice; TrkB F616A knockin mice, 1NMPP1 pretreatment) | TrkB activation by the compound after K252a or 1NMPP1 pretreatment (TrkB F616A [3]) | Time at which TrkB activity peaked (TrkB [4]; 50 mg/kg orally) [h] | TrkB activation in the brains of the mice (TrkB [4]; 50 mg/kg orally (in saline), C57BL/6J mice) | Oral bioavailability (TrkB [4]; mice) | Passage through the blood brain barrier (TrkB [4]; mouse, in vivo, po) | Minimal dosage required to activate TrkB (TrkB [4]; orally, mice sacrificed after 4 hours) [mg/kg] | TrkB activation in mouse brains (TrkB [4]; via drinking water or intraperitoneal injection) | TrkB activation in primary cortical neurons (TrkB [5]) |
| --- | --- | --- | --- | --- | --- | --- | --- | --- | --- | --- | --- | --- | --- |
| COC(=O)[C@@]1(O)C[C@H]2O[C@]1(C)n1c3ccccc3c3c4c(c5c6ccccc6n2c5c31)C(=O)NC4 [Compound K252a] | robustly inhibited | robustly blocked | – | – | – | – | – | – | – | – | – | – | – |
| CN(C)CC(=O)c1ccc(O)c(O)c1 [Compound I-8, α-dimethylamino-3′,4′-dihydroxyacetophenone] | – | – | potently suppress; also recorded: robustly repressed | significantly decreased | no significant effect | selectively blocked by 1NMPP1 but not K252a | 8 | potently activated TrkB | orally bio-available | can pass through the blood brain barrier | 20 | potently activate TrkB | prominently activated TrkB; also recorded: prominent stimulatory effect |
